For one data set, the target named is T1, hAChE (Homo sapiens, UniProt P22303).
T1 construct: ATCh (derived from human erythrocytes); from tissue; host or cells: human erythrocytes
The experiment in a line: biochemical. To be noted: for Selectivity Ratio = (IC50 of BuChE)/(IC50 of AChE): BuChE over AChE; for IC50: Ellman method, triplicate, three independent runs, read-out: IC50 ± SE hAChE. How it is done: (§1) Enzyme activities were determined using the Ellman spectrophotometric method. Enzyme substrates acetylthiocholine iodide (ATCh) and propionylthiocholine iodide (PTCh) were purchased from Sigma-Aldrich, Steinheim, Germany, and thiole reagent 5.5′-dithiobis-2-nitrobenzoic acid (DTNB) from Sigma-Aldrich, St. Louis, MO, USA. Donpezil and were used as reference compounds (purchased from sigma);
(§2) In initial state, ATCh (derived from human erythrocytes) and PTCh (derived from human plasma) were dissolved in water and DTNB in 0.1 M sodium phosphate buffer (pH 7.4). Sulindac analogues were dissolved in water, and all further dilutions were made in water. Final concentrations of synthetics were in the range of 0.01–200 µM, while substrates were 1.0 mM and 4.0 mM for ATCh and PTCh, respectively. The final dilution of AChE and BChE was 500 and 300 times, respectively. Briefly, 50 µL of AChE (1.00 U mL^−1) or 50 µL of BuChE (0.6 U mL^−1) and 20 µL of the test or standard compounds were incubated in 96 well plates for 30 min at room temperature. […] The IC50 values were calculated using absorbance obtained from the test and standard compounds. The assays were performed in triplicate with three independent runs.
In general terms: DTNB colorimetry detects thiols as they appear.

In a further data set the target is T2, hBuChE (Homo sapiens, UniProt P06276).
T2 construct: PTCh (derived from human plasma); from tissue; host or cells: human plasma
As to the kind of experiment: biochemical. To be noted: Ellman method, triplicate, three independent runs; read-out: IC50 ± SE hBuChE. How it is done:
as §1, §2

The next data set can be described thus: Antioxidant DPPH assay. The conditions noted are these: for antioxidant property (in words): DPPH assay, compared to ascorbic acid; for % Free Radicle Scavenging, Mean ± SE: DPPH. How it is done:
The assay was performed by previously mentioned protocol. […] The volume of solution was adjusted to 200 μL using methanol. The 96-well plate was incubated at 37 °C for 25 min on shaking water bath with moderate shaking. The absorbance of reaction mixture was measured at 520 nm wavelength. The reducing percentage (RP) of the DPPH was determined by the equation: RP=100 (A0−Ac)/A0 where A0 was the control or untreated DPPH absorbance, and Ac was the test treated DPPH absorbance. Ascorbic acid was used as the standard for the DPPH assay. The assay was performed in triplicate.
(DPPH is a stable violet radical that fades when it is reduced.)

In data set [1] the test system is SH-SY5Y neuroblastoma cell lines. As to the kind of experiment: Cell line-based toxicity study, MTT assay. To be noted: 72 h. How it is done: The toxicity of compound SD-30 was evaluated against SH-SY5Y neuroblastoma cell lines by the MTT assay according to the literature procedure with minor modifications. Briefly, the cell lines (density 1 × 10^5 cells/wells) were plated in 96 well plates and incubated for 24 h at 37 °C in CO2 incubator. Various concentrations of SD-30 ([…]) were added, and cells were incubated for 72 h. After that, […] of MTT reagent was added, and the cells were incubated for an additional 2 h. The obtained purple colored formazan crystals were solubilized in […] DMSO. The absorbance was measured at 570 nm, and the % cell viability was calculated. Each treatment was executed in triplicate and data are presented as percentage of the control.
Generally, in vitro cell line studies have been routinely used as these can be helpful in primary optimization and mechanistic investigations before animal-based toxicology studies. The evaluation of the neuroprotection effect of compound SD-30 ([…]) on human neuroblastoma SH-SY5Y cell lines was assessed through MTT (3-(4,5-dimethylthiazol-2-yl)-2,5- diphenyl tetrazolium bromide) assay This cell line is often used in AD due to its human origin and ease of maintenance.
For orientation: Tetrazolium assays rely on reduction of a dye to a coloured formazan, in cell work by metabolically active cells.

Data set [2] addresses AChE induced Aβ 1-42 aggregation (Homo sapiens, UniProt P22303). Format: biochemical. The conditions noted are these: 10 and 20 µM, ThT, 48 h incubation. As for the experimental part: Thioflavin T (ThT) assay was performed to determine the inhibition potential of SD-30 against AChE induced Aβ 1-42 aggregation. Aβ 1-42, purchased from Sigma, dissolved in the 10 mM phosphate buffer (PBS) of pH 7.5 to get a stock concentration of […]. The test compounds were dissolved in distilled water and further diluted with PBS. Different proportions of the Aβ 1-42: Inhibitor (1:0.5, 1:10, 1:20) were used in the ThT assay. […] The mixtures were incubated at room temperature for 48 h in the dark. […] The ThT assay was performed in triplicate and in three independent runs.

The values that follow come from PMC9860787, “Indene-Derived Hydrazides Targeting Acetylcholinesterase Enzyme in Alzheimer’s: Design, Synthesis, and Biological Evaluation” (Pharmaceutics, 2022).

Entries after “also recorded” stand apart in the source; their conditions may differ.

T1 sequence (P22303 other isoform, or with tags, fused parts or gaps): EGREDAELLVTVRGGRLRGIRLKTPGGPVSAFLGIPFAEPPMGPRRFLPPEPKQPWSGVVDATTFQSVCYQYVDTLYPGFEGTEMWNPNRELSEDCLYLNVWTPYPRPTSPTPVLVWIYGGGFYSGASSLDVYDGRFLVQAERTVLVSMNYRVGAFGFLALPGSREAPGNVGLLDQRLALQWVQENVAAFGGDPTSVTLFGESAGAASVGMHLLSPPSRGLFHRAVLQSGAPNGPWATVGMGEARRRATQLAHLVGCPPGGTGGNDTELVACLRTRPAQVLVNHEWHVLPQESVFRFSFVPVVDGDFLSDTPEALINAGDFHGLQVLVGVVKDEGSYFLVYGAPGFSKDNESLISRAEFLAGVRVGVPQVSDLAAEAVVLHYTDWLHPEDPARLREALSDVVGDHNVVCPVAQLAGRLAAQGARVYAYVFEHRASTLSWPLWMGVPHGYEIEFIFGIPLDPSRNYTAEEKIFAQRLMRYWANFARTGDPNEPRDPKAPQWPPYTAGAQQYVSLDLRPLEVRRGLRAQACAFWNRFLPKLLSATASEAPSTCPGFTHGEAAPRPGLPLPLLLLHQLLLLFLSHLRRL
AChE induced Aβ 1-42 aggregation, sequence (P22303 32-614): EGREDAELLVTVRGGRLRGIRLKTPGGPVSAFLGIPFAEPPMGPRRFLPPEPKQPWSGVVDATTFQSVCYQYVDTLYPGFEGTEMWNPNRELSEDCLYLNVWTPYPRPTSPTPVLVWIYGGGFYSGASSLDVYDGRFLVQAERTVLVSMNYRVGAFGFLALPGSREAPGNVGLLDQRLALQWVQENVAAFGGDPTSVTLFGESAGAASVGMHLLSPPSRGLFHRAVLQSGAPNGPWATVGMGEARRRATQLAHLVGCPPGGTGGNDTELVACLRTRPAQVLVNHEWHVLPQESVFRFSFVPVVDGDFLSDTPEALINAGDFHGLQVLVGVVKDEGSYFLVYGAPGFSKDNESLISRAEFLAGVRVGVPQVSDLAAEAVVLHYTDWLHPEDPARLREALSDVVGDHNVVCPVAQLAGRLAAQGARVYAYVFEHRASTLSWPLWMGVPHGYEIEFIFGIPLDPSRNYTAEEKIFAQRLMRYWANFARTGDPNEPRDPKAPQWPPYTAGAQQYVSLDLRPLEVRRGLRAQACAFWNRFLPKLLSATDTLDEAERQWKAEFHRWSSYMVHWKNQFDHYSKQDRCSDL

What is called IC50 is the midpoint of a concentration-inhibition curve. As for `CC1=C(CC(=O)NN=Cc2cccc(O)c2)c2cc(F)ccc2C1=Cc1ccc([S+](C)[O-])cc1` (stereo in doubt) [SD-24, 2-(5-fluoro-2-methyl-1-((E)-4-(methylsulfinyl)benzylidene)-1H-inden-3-yl)-N’-((E)-3-hydroxybenzylidene)acetohydrazide], the “Selectivity Ratio = (IC50 of BuChE)/(IC50 of AChE)” value (from here on “Selectivity Ratio =”) at hAChE was 2.30. Also, the figures for the IC50 at hAChE and on hBuChE were 40.43 ± 0.067 µM and 92.86 ± 0.066 µM, respectively. Besides, the “antioxidant property (in words)” value in the data set “Antioxidant DPPH assay” is given as “reasonable antioxidant property”. The “% Free Radicle Scavenging, Mean ± SE” value was determined as 17.68 ± 0.478% in the data set “Antioxidant DPPH assay” (50 µM) and 43.61 ± 0.983% in “Antioxidant DPPH assay” (100 µM).

On to `COc1cccc(C=NNC(=O)CC2=C(C)C(=Cc3ccc([S+](C)[O-])cc3)c3ccc(F)cc32)c1` (stereo in doubt) [SD-25, 2-(5-fluoro-2-methyl-1-((E)-4-(methylsulfinyl)benzylidene)-1H-inden-3-yl)-N’-((E)-3-methoxybenzylidene) acetohydrazide], for which the IC50 on hAChE and on hBuChE was more than 1000 µM each time. Further, the “% Free Radicle Scavenging, Mean ± SE” value in the data set “Antioxidant DPPH assay” (50 µM) amounted to 14.00 ± 0.345%; in the data set “Antioxidant DPPH assay” (100 µM) it was 40.95 ± 1.101%.

On to `CC1=C(CC(=O)NN=Cc2ccc(O)cc2)c2cc(F)ccc2C1=Cc1ccc([S+](C)[O-])cc1` (stereo in doubt) [SD-30, 2-(5-fluoro-2-methyl-1-((E)-4-(methylsulfinyl)benzylidene)-1H-inden-3-yl)-N’-((E)-4-hydroxybenzylidene)acetohydrazide], for which the “Selectivity Ratio =” value on hAChE was determined as 3.50. Also, the IC50 at hAChE is 13.9 ± 0.163 µM; at hBuChE, 48.55 ± 0.136 µM. Moreover, the “antioxidant property (in words)” value in “Antioxidant DPPH assay” was “reasonable antioxidant properties; also recorded: reasonable antioxidant property”. In addition, the “% Free Radicle Scavenging, Mean ± SE” value in “Antioxidant DPPH assay” (50 µM) was found to be 17.37 ± 0.988%; in “Antioxidant DPPH assay” (100 µM) it was 45.39 ± 1.036%. In addition, the “concentration up to which no significant toxicity / cytotoxicity was observed” value in data set [1] is recorded as “up to 30 mM”. Besides, the “effect on AChE-induced Aβ1-42 aggregation (in words)” value in data set [2] is reported as “effectively inhibited AChE-induced Aβ aggregation; also recorded: effective on Aβ1-42 aggregation; also recorded: concentration-dependent decrease in the Aβ aggregation”.

For the molecule `COc1ccccc1C=NNC(=O)CC1=C(C)C(=Cc2ccc([S+](C)[O-])cc2)c2ccc(F)cc21` (stereo in doubt) [SD-31, 2-(5-fluoro-2-methyl-1-((E)-4-(methylsulfinyl)benzylidene)-1H-inden-3-yl)-N’-((E)-2-methoxybenzylidene) acetohydrazide], the IC50 on hAChE was 733.16 ± 0.143 µM; on hBuChE it was more than 1000 µM. The entries for the “% Free Radicle Scavenging, Mean ± SE” value in the data set “Antioxidant DPPH assay” (50 µM) and in the data set “Antioxidant DPPH assay” (100 µM) were 12.24 ± 0.222% and 39.39 ± 0.860%, respectively.

As to `O=C1O[C@H]([C@@H](O)CO)C(O)=C1O` [Ascorbic acid, reference compound], the “% Free Radicle Scavenging, Mean ± SE” value in the data set “Antioxidant DPPH assay” (50 µM) came out at 42.66 ± 1.491%; in the data set “Antioxidant DPPH assay” (100 µM) it was 76.76 ± 0.708%.

Turning to `CC1=C(CC(=O)NN=Cc2c(O)cccc2O)c2cc(F)ccc2/C1=C\c1ccc([S+](C)[O-])cc1` (centres unmarked) [SD-40], the “Selectivity Ratio =” value on hAChE is given as 2.63. Besides, the IC50 was 108.9 ± 0.142 µM on hAChE and 286.01 ± 0.143 µM on hBuChE. In addition, the “% Free Radicle Scavenging, Mean ± SE” value in “Antioxidant DPPH assay” (50 µM) was determined as 28.67 ± 0.422%; in the data set “Antioxidant DPPH assay” (100 µM), 63.42 ± 0.831%.

With `CC1=C(CC(=O)NN=Cc2cccc(O)c2O)c2cc(F)ccc2/C1=C\c1ccc([S+](C)[O-])cc1` (centres unmarked) [SD-42], the “Selectivity Ratio =” value at hAChE is reported as 2.86. For the same molecule, the results for the IC50 at hAChE and on hBuChE were 92.44 ± 0.106 µM and 264.33 ± 0.068 µM, respectively. For the same molecule, in “Antioxidant DPPH assay”, the “antioxidant property (in words)” value is listed as “reasonable antioxidant property”. Also, the “% Free Radicle Scavenging, Mean ± SE” value is listed as 30.43 ± 0.299% in the data set “Antioxidant DPPH assay” (50 µM) and 64.98 ± 1.071% in “Antioxidant DPPH assay” (100 µM).
